Earlier results in PubChem BioAssay AID1259409 (Chemical Carcinogenesis Research Information System (CCRIS), 2018).

Tested on: rodent chemically induced tumor inhibition, incidence and multiplicity
Assay: CCRIS tumor inhibitor studies

## Oc1cc(O)c2c(c1)O[C@H](c1ccc(O)c(O)c1)[C@@H](O)C2
Carcinogen: 1,2-DIMETHYLHYDRAZINE [540-73-6], Species: RAT, Strain/Sex: WISTAR, Target Tissue: Type of Lesion: COLON, Dose [Carcinogen]: 20 MG/KG
  tumour outcome (control, treated, inhibition, significance): 81.3%, 58.8%, 27.7%, p<0.05
Carcinogen: 7,12-DIMETHYLBENZ[A]ANTHRACENE, 57-97-6, Dose [Inhibitor]: 0, 0.2 ML OF A 1% SOLUTION 1/D FOR 2 WK APPLIED 5 MIN POST EACH CARCINOGEN DOSE THEN 1/D FOR 4 WK DURING PROMOTION STAGE, Route [Inhibitor]: DERMAL, Species: MOUSE, Strain/Sex: SWISS/MALE, Target Tissue: Type of Lesion: SKIN: PAPILLOMA, Dose [Carcinogen]: 0.2 ML OF A 0.24% SOLUTION IN DMSO 1/D FOR 2 WK, Promoter: CROTON OIL, 8001-28-3
  tumour outcome (control, treated, inhibition, significance): 23/23 (100%), 16/23 (70%), 30%, not calculated
Carcinogen: 7,12-DIMETHYLBENZ[A]ANTHRACENE, 57-97-6, Dose [Inhibitor]: 0, 0.2 ML OF A 1% SOLUTION 1/D FOR 2 WK APPLIED 5 MIN PRIOR TO EACH CARCINOGEN DOSE (STUDY DURATION: 20 WK), Route [Inhibitor]: DERMAL, Species: MOUSE, Strain/Sex: SWISS/MALE, Target Tissue: Type of Lesion: SKIN: PAPILLOMA, Dose [Carcinogen]: 0.2 ML OF A 0.24% SOLUTION IN DMSO 1/D FOR 2 WK, Promoter: CROTON OIL, 8001-28-3
  tumour outcome (control, treated, inhibition, significance): 23/23 (100%), 20/23 (87%), 13%, not calculated
Carcinogen: 7,12-DIMETHYLBENZ[A]ANTHRACENE, 57-97-6, Dose [Inhibitor]: 0, 2.5 MG/D IN DRINKING WATER FOR DURATION OF STUDY BEGINNING 2 WK PRIOR TO CARCINOGEN DOSE (STUDY DURATION: 6 MO), Route [Inhibitor]: ORAL, Species: RAT, Strain/Sex: WISTAR/FEMALE, Target Tissue: Type of Lesion: MAMMARY GLAND: TUMOR, Dose [Carcinogen]: 10 MG IN PEANUT OIL INJECTED INTO SUBCUTANEOUS POUCH CREATED IN THE 5TH AND 6TH MAMMARY GLAND REGION, Promoter: NONE USED
  tumour outcome (control, treated, inhibition, significance): 20/20 (100%), 4/20 (20%), 80%, p<0.001
Carcinogen: 7,12-DIMETHYLBENZ[A]ANTHRACENE, 57-97-6, Dose [Inhibitor]: 0, 4 MG 2/WK FOR 20 WK BEGINNING 2 WK POST CARCINOGEN DOSE (STUDY DURATION: 22 WK), Route [Inhibitor]: DERMAL, Species: MOUSE, Strain/Sex: CF-1/FEMALE, Target Tissue: Type of Lesion: SKIN: PAPILLOMA, Dose [Carcinogen]: 25.6 UG ONCE, Promoter: 12-O-TETRADECANOYLPHORBOL-13-ACETATE, 16561-29-8
  tumour outcome (control, treated, inhibition, significance): 97%, 97%, 0%, not significant
Carcinogen: 7,12-DIMETHYLBENZ[A]ANTHRACENE, 57-97-6, Dose [Inhibitor]: 0, 12 MG 2/WK FOR 20 WK BEGINNING 2 WK POST CARCINOGEN DOSE (STUDY DURATION: 22 WK), Route [Inhibitor]: DERMAL, Species: MOUSE, Strain/Sex: CF-1/FEMALE, Target Tissue: Type of Lesion: SKIN: PAPILLOMA, Dose [Carcinogen]: 25.6 UG ONCE, Promoter: 12-O-TETRADECANOYLPHORBOL-13-ACETATE, 16561-29-8
  tumour outcome (control, treated, inhibition, significance): 97%, 91%, 6%, not significant
Carcinogen: BENZO[A]PYRENE, 50-32-8, Dose [Inhibitor]: 0, 2.5 MG/D IN DRINKING WATER FOR 8 WK BEGINNING 2 WK PRIOR TO CARCINOGEN TREATMENT (STUDY DURATION: 20 WK), Route [Inhibitor]: ORAL, Species: MOUSE, Strain/Sex: SWISS/FEMALE, Target Tissue: Type of Lesion: FORESTOMACH: TUMOR, Dose [Carcinogen]: 1 MG IN 0.1 ML PEANUT OIL 2/WK FOR 4 WK, Promoter: NONE USED
  tumour outcome (control, treated, inhibition, significance): 20/20 (100%), 16/20 (80%), 20%, not significant
Carcinogen: METHYL(ACETOXYMETHYL)NITROSAMINE, 56856-83-8, Dose [Inhibitor]: 0, 1.7 MG/D IN DRINKING WATER FOR DURATION OF STUDY BEGINNING 2 WK PRIOR TO CARCINOGEN TREATMENT (STUDY DURATION: 13 MO), Route [Inhibitor]: ORAL, Species: HAMSTER, Strain/Sex: SYRIAN/FEMALE, Target Tissue: Type of Lesion: ORAL: CAVITY, Dose [Carcinogen]: 2 MG/KG BW APPLIED TO RIGHT CHEEK POUCH 2/MO FOR 6 MO, Promoter: NONE USED
  tumour outcome (control, treated, inhibition, significance): 14/15 (93%), 4/15 (27%), 71%, p<0.001
Carcinogen: N-ETHYL-N-HYDROXYETHYLNITROSAMINE, 13147-25-6, Dose [Inhibitor]: 0, 0.8% IN DIET FOR 36 WK BEGINNING 1 WK POST CARCINOGEN TREATMENT (STUDY DURATION: 40 WK), Route [Inhibitor]: ORAL, Species: RAT, Strain/Sex: WISTAR/MALE, Target Tissue: Type of Lesion: KIDNEY: MICROADENOMA, Dose [Carcinogen]: 0.1% IN DRINKING WATER FOR 3 WK, Promoter: NONE USED
  tumour outcome (control, treated, inhibition, significance): 11/17 (65%), 12/17 (71%), -9%, not significant
Carcinogen: N-ETHYL-N-HYDROXYETHYLNITROSAMINE, 13147-25-6, Dose [Inhibitor]: 0, 0.8% IN DIET FOR 36 WK BEGINNING 1 WK POST CARCINOGEN TREATMENT (STUDY DURATION: 40 WK), Route [Inhibitor]: ORAL, Species: RAT, Strain/Sex: WISTAR/MALE, Target Tissue: Type of Lesion: KIDNEY: RENAL CELL TUMOR, Dose [Carcinogen]: 0.1% IN DRINKING WATER FOR 3 WK, Promoter: NONE USED
  tumour outcome (control, treated, inhibition, significance): 14/17 (82%), 11/17 (65%), 21%, not significant
Carcinogen: N-ETHYL-N-HYDROXYETHYLNITROSAMINE, 13147-25-6, Dose [Inhibitor]: 0, 0.8% IN DIET FOR 36 WK BEGINNING 1 WK POST CARCINOGEN TREATMENT (STUDY DURATION: 40 WK), Route [Inhibitor]: ORAL, Species: RAT, Strain/Sex: WISTAR/MALE, Target Tissue: Type of Lesion: LIVER: HEPATOCELLULAR ADENOMA, Dose [Carcinogen]: 0.1% IN DRINKING WATER FOR 3 WK, Promoter: NONE USED
  tumour outcome (control, treated, inhibition, significance): 10/17 (59%), 11/17 (65%), -10%, not significant
Carcinogen: N-ETHYL-N-HYDROXYETHYLNITROSAMINE, 13147-25-6, Dose [Inhibitor]: 0, 0.8% IN DIET FOR 36 WK BEGINNING 1 WK POST CARCINOGEN TREATMENT (STUDY DURATION: 40 WK), Route [Inhibitor]: ORAL, Species: RAT, Strain/Sex: WISTAR/MALE, Target Tissue: Type of Lesion: LIVER: HEPATOCELLULAR CARCINOMA, Dose [Carcinogen]: 0.1% IN DRINKING WATER FOR 3 WK, Promoter: NONE USED
  tumour outcome (control, treated, inhibition, significance): 7/17 (41%), 3/17 (18%), 56%, not significant
Carcinogen: N-NITROSOBIS(2-HYDROXYPROPYL)AMINE, 53609-64-6, Dose [Inhibitor]: 0, 1.5% IN DIET FOR 30 WK BEGINNING POST CARCINOGEN TREATMENT (STUDY DURATION: 35 WK), Route [Inhibitor]: ORAL, Species: HAMSTER, Strain/Sex: SYRIAN/MALE, Target Tissue: Type of Lesion: PANCREAS: ADENOCARCINOMA, Dose [Carcinogen]: 500 MG/KG 1/WK FOR 5 WK, Promoter: NONE USED
  tumour outcome (control, treated, inhibition, significance): 8/17 (47%), 5/19 (26%), 45%, not significant
Carcinogen: NONE USED, Dose [Inhibitor]: 0, 2.5 MG/D IN DRINKING WATER FROM 8 MO OF AGE (STUDY DURATION: 15 MO), Route [Inhibitor]: ORAL, Species: MOUSE, Strain/Sex: C3H/FEMALE, Target Tissue: Type of Lesion: MAMMARY GLAND: TUMOR, Promoter: NONE USED
  tumour outcome (control, treated, inhibition, significance): 12/20 (60%), 8/20 (40%), 33%, not calculated

## COc1cc2c(cc1OC)[C@]1(O)C(=O)c3ccc4c(c3O[C@@H]1CO2)C=CC(C)(C)O4
Carcinogen: 7,12-DIMETHYLBENZ[A]ANTHRACENE, 57-97-6, Dose [Inhibitor]: 0, 85 NMOL 2/WK BEGINNING 1 WK POST CARCINOGEN DOSE (STUDY DURATION: 20 WK), Route [Inhibitor]: DERMAL, Species: MOUSE, Strain/Sex: ICR/FEMALE, Target Tissue: Type of Lesion: SKIN: PAPILLOMA, Dose [Carcinogen]: 390 NMOL, Promoter: 12-O-TETRADECANOYLPHORBOL-13-ACETATE, 16561-29-8
  tumour outcome (control, treated, inhibition, significance): 100%, 40%, 60%, not calculated

## CCCCC1OC(=O)C2=CCCCC21 (centres undefined)
Carcinogen: BENZO[A]PYRENE, 50-32-8, Dose [Inhibitor]: 0, 20 MG 3/WK FOR 4 WK ON DAYS OTHER THAN THE CARCINOGEN TREATMENT (STUDY DURATION: 20 WK), Route [Inhibitor]: GAVAGE, Species: MOUSE, Strain/Sex: STRAIN-A/FEMALE, Target Tissue: Type of Lesion: FORESTOMACH: TUMOR, Dose [Carcinogen]: 1 MG IN 0.2 ML COTTONSEED OIL 2/WK FOR 4 WK, Promoter: NONE USED
  tumour outcome (control, treated, inhibition, significance): 13/19 (68%), 2/18 (11%), 84%, p<0.025

## O=c1cc(-c2ccc(O)cc2)oc2cc(O)cc(O)c12
Carcinogen: 7,12-DIMETHYLBENZ[A]ANTHRACENE, 57-97-6, Dose [Inhibitor]: 0, 5 UMOL IN 0.2 ML ACETONE/DMSO (9:1) 2/WK FOR 20 WK APPLIED 30 MIN PRIOR TO EACH PROMOTER DOSE (STUDY DURATION: 30 WK), Route [Inhibitor]: DERMAL, Species: MOUSE, Strain/Sex: SENCAR/FEMALE, Target Tissue: Type of Lesion: SKIN: PAPILLOMA, Dose [Carcinogen]: 10 NMOL IN 0.2 ML ACETONE ONCE, Promoter: 12-O-TETRADECANOYLPHORBOL-13-ACETATE, 16561-29-8
  tumour outcome (control, treated, inhibition, significance): 92%, 87%, 5%, not significant
Carcinogen: UV-B IRRADIATION, Dose [Inhibitor]: 0, 5 UMOL IN 0.2 ML DMSO:ACETONE (1:9) 2.5-3 HR PRIOR TO EACH UV-B EXPOSURE (STUDY DURATION: 55 WK), Route [Inhibitor]: DERMAL, Species: MOUSE, Strain/Sex: SKH-1/FEMALE, Target Tissue: Type of Lesion: SKIN: SQUAMOUS CELL CARCINOMA, Dose [Carcinogen]: 745 MJ/CM2 5 D/WK FOR 11 WK, Promoter: NONE USED
  tumour outcome (control, treated, inhibition, significance): 81%, 67%, 17%, not significant
Carcinogen: UV-B IRRADIATION, Dose [Inhibitor]: 0, 10 UMOL IN 0.2 ML DMSO:ACETONE (1:9) 2.5-3 HR PRIOR TO EACH UV-B EXPOSURE (STUDY DURATION: 55 WK), Route [Inhibitor]: DERMAL, Species: MOUSE, Strain/Sex: SKH-1/FEMALE, Target Tissue: Type of Lesion: SKIN: SQUAMOUS CELL CARCINOMA, Dose [Carcinogen]: 745 MJ/CM2 5 D/WK FOR 11 WK, Promoter: NONE USED
  tumour outcome (control, treated, inhibition, significance): 81%, 39%, 52%, not calculated
